ChEMBL document CHEMBL1275545, “Carbapenem-resistant Acinetobacter baumannii isolates expressing the blaOXA-23 gene associated with ISAba4 in Belgium” (2008)
≈ marks a conversion by molar mass, not a printed value.

System: Acinetobacter baumannii
Assay: Antibacterial activity against Acinetobacter baumannii GIL1 isolate harboring intrinsic blaOXA-51/69-like gene by Etest method
Type: functional

Row | Compound | MIC
1 | O=C(O)c1cn(C2CC2)c2cc(N3CCNCC3)c(F)cc2c1=O [CIPROFLOXACIN] | > 32 µg/mL
2 | C[C@@H](O)[C@H]1C(=O)N2C(C(=O)O)=C(S[C@@H]3CN[C@H](C(=O)N(C)C)C3)[C@H](C)[C@H]12 [MEROPENEM] | > 32 µg/mL
3 | CN(C)c1cc(NC(=O)CNC(C)(C)C)c(O)c2c1C[C@H]1C[C@H]3[C@H](N(C)C)C(O)=C(C(N)=O)C(=O)[C@@]3(O)C(O)=C1C2=O [TIGECYCLINE] | 6 µg/mL (≈ 10.2 µM)
4 | C[C@@H](O)[C@H]1C(=O)N2C(C(=O)O)=C(SCCNC=N)C[C@H]12 [IMIPENEM ANHYDROUS] | > 32 µg/mL
5 | COLISTIN | 0.5 µg/mL
6 | NCC[C@H](O)C(=O)N[C@@H]1C[C@H](N)[C@@H](O[C@H]2O[C@H](CN)[C@@H](O)[C@H](O)[C@H]2O)[C@H](O)[C@H]1O[C@H]1O[C@H](CO)[C@@H](O)[C@H](N)[C@H]1O [AMIKACIN] | > 256 µg/mL
7 | CO[C@H]1/C=C/O[C@@]2(C)Oc3c(C)c(O)c4c(O)c(c(/C=N/N5CCN(C)CC5)c(O)c4c3C2=O)NC(=O)/C(C)=C\C=C\[C@H](C)[C@H](O)[C@@H](C)[C@@H](O)[C@@H](C)[C@H](OC(C)=O)[C@@H]1C [RIFAMPIN] | 3 µg/mL (≈ 3.65 µM)
8 | CC1(C)[C@H](C(=O)O)N2C(=O)C[C@H]2S1(=O)=O [SULBACTAM] | 48 µg/mL (≈ 206 µM)
